Here are results for one compound from article PMC10580381 (ACS Pharmacology & Translational Science, 2023).

One data set has as its system α-tubulin acetylation. Put plainly: Western blot of α-tubulin acetylation in H1975 cells. Type of data set: cell-based, human. To be noted: flunarizine up to 10 μM, 24 h. The method, then: After the cancer cells were treated with the designated drug candidates, they were harvested in lysis buffer (0.05 M HEPES, 0.15 M NaCl, 2 mM EDTA, 10% v/v glycerol, and 1% v/v Triton X-100, pH 7.4) supplemented with protease and phosphatase inhibitors. Sodium dodecyl sulfate poly(acrylamide) gel electrophoresis (SDS-PAGE) was used to separate the different proteins in the whole cell lysates, which were then transferred to a poly(vinylidene difluoride) membrane for immunoblot analysis using different specific antibodies (acetylated histone H3, acetylated α-tubulin, histone H3, or GAPDH; Cell Signaling Technology). The bands corresponding to specific proteins of interest were visualized by using the WesternBright ECL HRP substrate (Advansta, San Jose, California). A chemiluminescent Western blot signal was detected and analyzed using a ChemiDoc MP system (Bio-Rad Laboratories, Hercules, California).
On the technique in general: Immunoblotting shows a protein as a band on a membrane.

The test system of another data set is NSCLC cell lines. Put plainly: cells. Type of data set: cell-based. To be noted: Homo sapiens, read-out: effect on cancer cell viability.
The test system of data set [1] is H1975 cells. To be noted: flunarizine alone 5 or 10 μM, 24 h (Figure 3). The method, then: Afterward, ethanol was discarded, and the fixed cells were incubated with RNase I (25 μg/mL) at 37 °C for 30 min. Then, the cells were stained with propidium iodide (50 μg/mL) at room temperature for at least 1 h and analyzed by using a flow cytometer (BD LSRFortessa; BD Biosciences). At least 10,000 events were acquired for each sample. ModFit software (Verity Software House, Topsham, Maine) was used to analyze the cell cycle profile.

The subject of data set [2] is H1975 cells. Put plainly: Wound healing assay. To be noted: up to 48 h. It counts as cell-based, human. The text has this:
After the cells had grown to about 80% confluence, a physical gap was created on the cell monolayer by scratching with a pipet tip. […] The scratch closure rate was estimated by the change in the wound width over time. It was presented as the relative gap width (%) by dividing the average distance between the two margins of the scratch at the indicated time by the initial distance at the start of the wound healing assay.

The test system of data set [3] is H1975 cells. As to the kind of experiment: Transwell invasion assay. Type of data set: cell-based, human. To be noted: flunarizine 5 or 10 μM, 48 h.
In the next data set the test system is H1650 cells. As to the kind of experiment: cells. To be noted: Homo sapiens, NCI-H1650, read-out: cell viability (%).
For data set [4] the following is noted: in vivo; cited from earlier work.
A further data set addresses recombinant human HDAC1 (Homo sapiens, UniProt Q13547). As to the kind of experiment: biochemical.
Another data set concerns the target T1, recombinant human HDAC6 (Homo sapiens, UniProt Q9UBN7).
T1 sequence (Q9UBN7 1-1215): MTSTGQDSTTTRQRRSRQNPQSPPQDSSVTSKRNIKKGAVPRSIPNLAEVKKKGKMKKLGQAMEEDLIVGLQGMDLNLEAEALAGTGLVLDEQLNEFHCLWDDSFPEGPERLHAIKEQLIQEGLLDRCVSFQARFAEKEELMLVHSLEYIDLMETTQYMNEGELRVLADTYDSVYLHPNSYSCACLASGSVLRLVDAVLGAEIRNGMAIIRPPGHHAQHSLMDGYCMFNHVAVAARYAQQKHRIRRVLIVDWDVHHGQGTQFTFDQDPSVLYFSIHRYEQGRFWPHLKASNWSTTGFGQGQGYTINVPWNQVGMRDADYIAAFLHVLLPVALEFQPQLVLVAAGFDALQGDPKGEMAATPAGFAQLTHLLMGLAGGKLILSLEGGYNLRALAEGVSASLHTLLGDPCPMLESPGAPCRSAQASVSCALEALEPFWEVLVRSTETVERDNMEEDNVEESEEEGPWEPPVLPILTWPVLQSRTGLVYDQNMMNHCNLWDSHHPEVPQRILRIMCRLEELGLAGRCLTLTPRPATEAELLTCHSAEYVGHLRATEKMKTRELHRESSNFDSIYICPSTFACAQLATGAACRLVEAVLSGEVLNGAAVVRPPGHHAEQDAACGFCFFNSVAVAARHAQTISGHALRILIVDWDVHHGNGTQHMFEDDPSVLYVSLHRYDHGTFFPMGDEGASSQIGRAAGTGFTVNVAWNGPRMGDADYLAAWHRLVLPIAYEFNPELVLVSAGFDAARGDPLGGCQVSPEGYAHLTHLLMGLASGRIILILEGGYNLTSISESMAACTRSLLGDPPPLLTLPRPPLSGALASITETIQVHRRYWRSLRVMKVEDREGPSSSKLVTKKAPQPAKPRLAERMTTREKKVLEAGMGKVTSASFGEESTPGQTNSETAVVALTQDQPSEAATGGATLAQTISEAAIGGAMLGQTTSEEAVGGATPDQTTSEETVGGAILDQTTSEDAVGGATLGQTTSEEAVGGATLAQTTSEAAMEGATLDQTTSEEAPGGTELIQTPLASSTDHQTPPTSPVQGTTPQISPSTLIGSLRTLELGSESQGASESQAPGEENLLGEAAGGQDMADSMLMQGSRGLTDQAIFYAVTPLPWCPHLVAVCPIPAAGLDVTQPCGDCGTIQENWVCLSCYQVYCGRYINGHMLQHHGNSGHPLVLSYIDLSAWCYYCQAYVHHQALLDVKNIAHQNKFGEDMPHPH
Put plainly: biochemical. To be noted: IC50 HDAC6, recombinant HDAC6, mean ± SD, three independent experiments.

For a further data set, the system named is A549 cells. As to the kind of experiment: SRB cell proliferation assay, A549. To be noted: Homo sapiens, A549, read-out: cell viability (%).

The structures appear in SMILES notation. Where “and” joins values, the source holds several entries; their conditions need not be identical. Equal entries are not always repeated. Entries after “also recorded” stand apart in the source; their conditions may differ.

recombinant human HDAC1, sequence (Q13547 whole entry): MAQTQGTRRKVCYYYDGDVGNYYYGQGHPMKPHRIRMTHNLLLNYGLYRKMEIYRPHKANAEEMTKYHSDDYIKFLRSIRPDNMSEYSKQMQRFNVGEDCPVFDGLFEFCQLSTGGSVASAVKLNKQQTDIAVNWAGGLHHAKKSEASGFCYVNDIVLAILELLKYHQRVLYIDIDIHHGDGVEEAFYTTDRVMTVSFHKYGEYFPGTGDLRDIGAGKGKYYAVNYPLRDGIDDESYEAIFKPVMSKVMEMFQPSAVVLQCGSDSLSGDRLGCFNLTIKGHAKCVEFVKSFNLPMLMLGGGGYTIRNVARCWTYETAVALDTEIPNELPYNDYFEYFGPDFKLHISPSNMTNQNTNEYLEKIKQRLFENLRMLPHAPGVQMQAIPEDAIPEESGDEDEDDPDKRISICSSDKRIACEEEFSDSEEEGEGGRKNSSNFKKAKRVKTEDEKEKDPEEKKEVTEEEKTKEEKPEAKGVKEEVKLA

As a reminder, the viability is a read-out of living cells in per cent, often relative to untreated cells. As usually defined, the IC50 is the concentration needed to halve the response being measured. Take `Fc1ccc(C(c2ccc(F)cc2)N2CCN(C/C=C/c3ccccc3)CC2)cc1` [flunarizine]: the “effect on acetylation of α-tubulin” value with α-tubulin acetylation is on record as “did not affect acetylation of α-tubulin; also recorded: did not affect the acetylation”. Further, the viability at 20 µM in the data set on NSCLC cell lines is at most 25%. Moreover, the “G1 cell cycle arrest” value with H1975 cells [1] was “induce G1 cell cycle arrest”. In the data set with H1975 cells [2], the cancer cell migration result is on record as “inhibited the cell migration ability”. For the same compound, in the data set with H1975 cells [3], the cancer cell invasion result is reported as “inhibition”. The viability with H820 cells turned out to be 89 ± 5%. In addition, in the data set with BEAS-2B, the “effect on cell viability of BEAS-2B” value is reported as “did not appreciably affect the cell viability”. Moreover, the viability at 2.5 µM was found to be 93 ± 4% with H1650 cells and 101 ± 5% in the data set on A549 cells. The results for the viability at 5 µM in the data set on H1650 cells and in the data set on A549 cells were 92 ± 5% and 95 ± 6%, respectively. Further, the viability at 10 µM with H1650 cells was 87 ± 6%; with A549 cells, 102 ± 8%. The elimination half-life result in data set [4] is reported as “around 18 days”. For the same compound, the IC50 was 0.285 ± 0.015 µM on recombinant human HDAC1; ~5.6 µM and 5.6 µM on recombinant human HDAC6.
